The subject of one test is Pyrenophora teres. As to the kind of experiment: 1 day protective application against net blotch of barley. The format is in vivo. Particulars: 63 ppm, sprayed to runoff on barley seedlings; inoculated 24 hours after drying; assessed visually after 6 days; untreated plants 90% infected. How it is done: The active compounds were prepared separately or together as a stock solution with 0.25% by weight of active compound in acetone or DMSO. 1% by weight of the emulsifier Uniperol® EL (wetting agent with an emulsifying and dispersing action based on ethoxylated alkylphenols) was added to this solution and appropriately diluted with water to the desired concentration. Use example 2—Activity in 1 day protective application against net blotch of barley caused by Pyrenophora teres Leaves of pot-grown barley seedlings were sprayed to runoff point with an aqueous suspension in the active compound concentration given below. 24 hours after the spray coating had dried on, the test plants were inoculated with an aqueous suspension of spores of Pyrenophora [syn. Drechslera] teres, the causative agent of net blotch. The test plants were subsequently placed in a greenhouse at temperatures of between 20 and 24° C. and a relative atmospheric humidity of 95 to 100%. After 6 days, the extent of development of the disease was determined visually in % of infection of the total leaf area.

The next test deals with Sphaerotheca fuliginea. As to the kind of experiment: Protective application against powdery mildew on cucumber leaves. The format is in vivo. Particulars: 63 ppm, sprayed to runoff on cucumber seedlings 'Chinese Snake'; inoculated 20 hours after drying; assessed visually after 7 days; untreated plants 100% infected. The procedure:
The active compounds were prepared separately or together as a stock solution with 0.25% by weight of active compound in acetone or DMSO. 1% by weight of the emulsifier Uniperol® EL (wetting agent with an emulsifying and dispersing action based on ethoxylated alkylphenols) was added to this solution and appropriately diluted with water to the desired concentration. Use example 1—Activity in protective application against powdery mildew on cucumber leaves caused by Sphaerotheca fuliginea Leaves of pot-grown cucumber seedlings of the variety “Chinese Snake” in the cotyledon stage were sprayed to runoff point with an aqueous suspension in the active compound concentration given below. 20 hours after the spray coating had dried on, the plants were inoculated with an aqueous suspension of spores of powdery mildew of cucumber (Sphaerotheca fuliginea). The plants were subsequently cultivated for 7 days in a greenhouse at temperatures of between. 20 and 24° C. and a relative atmospheric humidity of 60 to 80%. The extent of mildew development was then determined visually in % of infection of the cotyledon area.

On to `CC1CCN(c2c(-c3c(F)cc(F)cc3F)c(C#N)nc3ncnn23)CC1` [Compound I-2, 5-cyano-6-(2,4,6-trifluorophenyl)-7-(4-methylpiperidinyl)[1,2,4]triazolo[1,5a]pyrimidine], for which, in the test with Pyrenophora teres, the “extent of development of the disease in % of infection of the total leaf area” value is given as “no infection”. In the test with Sphaerotheca fuliginea, the “extent of mildew development in % of infection of the cotyledon area” value is recorded as “no infection”.

With `COc1nc2ncnn2c(N2CCC(C)CC2)c1-c1c(F)cc(F)cc1F` [Compound I-5, 5-methoxy-6-(2,4,6-trifluorophenyl)-7-(4-methylpiperidinyl)[1,2,4]triazolo[1,5a]pyrimidine], in the test on Pyrenophora teres, the “extent of development of the disease in % of infection of the total leaf area” value is given as “no infection”. The “extent of mildew development in % of infection of the cotyledon area” value with Sphaerotheca fuliginea was “no infection”.

The record behind these values is US20070149515A1, “6-(2,4,6-Trifluorophenyl)-triazolopyrimidines, method for the production thereof, use thereof for controlling harmful fungi, and substances containing the same” (BASF Aktiengesellschaft, priority 2003, published 2007).
